Measurements taken from US9101638B2, “Boronic acid derivatives and therapeutic uses thereof” (Rempex Pharmaceuticals, Inc., priority 2013, dated 2015).

Tests used:
CTX-M-14 = CTX-M-14 (Escherichia coli, UniProt Q9L5C7); assay: Inhibition of nitrocefin cleavage by purified CTX-M-14; assay type: biochemical; conditions: nitrocefin reporter substrate, purified enzyme; read-out: Ki (CTX-M-14, NCF)
In short: (§1)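 10 min RT preincubation, enzyme with inhibitor series in reaction buffer. Substrate nitrocefin; kinetic read 490 nm, 10 sec intervals, 10 min total.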

KPC-2 = KPC-2 (Klebsiella pneumoniae, UniProt Q9F663); assay: Inhibition of nitrocefin cleavage by purified KPC-2; assay type: biochemical; conditions: nitrocefin reporter substrate, purified enzyme; read-out: Ki (KPC-2, NCF)
In short: as §1

CMY-2 = CMY-2 (Klebsiella pneumoniae, UniProt Q48434); assay: Inhibition of nitrocefin cleavage by purified CMY-2; assay type: biochemical; conditions: nitrocefin reporter substrate, purified enzyme; read-out: Ki (CMY-2, NCF)
Procedure: (§2) Purified enzymes were mixed with various concentrations of inhibitors in reaction buffer and incubated for 10 min at room temperature. Nitrocefin was added and substrate cleavage profiles were recorded at 490 nm every 10 sec for 10 min.

OXA-48 = OXA-48 (Klebsiella pneumoniae, UniProt Q6XEC0); assay: Inhibition of nitrocefin cleavage by purified OXA-48; assay type: biochemical; conditions: nitrocefin reporter substrate, purified enzyme; read-out: Ki (OXA-48, NCF)
In short: as §1

Thrombin = molecular target: T1, Thrombin (Homo sapiens, UniProt P00734); assay: Serine protease inhibition: thrombin; assay type: biochemical, mammalian; conditions: Table 8A, class symbols; read-out: IC50 Thrombin
T1 construct: Thrombin; MPBio; 19491880; purchased MPBio 19491880
Procedure: (§3) The effect of selected BLIs on the enzymatic activity of some common mammalian serine proteases was evaluated.
(§4) 50 μl of the diluted enzyme was mixed with 50 μl of inhibitor at various concentrations and 50 μl of corresponding buffer (Table 7). Reaction mixtures were incubated for 10 min at 37° C. Subsequently, 50 μl of corresponding substrate (Table 7) was added and absorbance or fluorescence was monitored for 30 min on SpectraMax M2 plate reader (Molecular Devices). 4-(2-Aminoethyl)benzenesulfonyl fluoride hydrochloride (AEBSF) and leupeptin were used as positive controls. Rates of reaction were calculated and presented relative to “no treatment” control.

Elastase = molecular target: T2, Elastase (Sus scrofa, UniProt P00772); assay: Serine protease inhibition: elastase; assay type: biochemical, mammalian; conditions: Table 8A, class symbols; read-out: IC50 Elastase
T2 construct: purchased Calbiochem 324682
Procedure: as §3, §4

Neutrophil elastase = molecular target: T3, Neutrophil elastase (Homo sapiens, UniProt P08246); assay: Serine protease inhibition: neutrophil elastase; assay type: biochemical, mammalian; conditions: Table 8B; read-out: IC50 Neutrophil elastase
T3 construct: purchased Calbiochem 324681
T3 sequence (P08246 30-267): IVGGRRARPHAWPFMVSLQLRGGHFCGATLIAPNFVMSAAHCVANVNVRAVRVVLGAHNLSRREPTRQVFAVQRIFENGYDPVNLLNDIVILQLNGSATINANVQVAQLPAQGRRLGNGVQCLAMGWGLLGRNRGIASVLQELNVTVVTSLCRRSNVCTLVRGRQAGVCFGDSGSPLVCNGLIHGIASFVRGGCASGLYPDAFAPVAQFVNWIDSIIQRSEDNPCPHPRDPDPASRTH
Procedure: as §3, §4

CathepsinG = molecular target: T4, CathepsinG (Homo sapiens, UniProt P08311); assay: Serine protease inhibition: cathepsin G; assay type: biochemical, mammalian; conditions: Table 8B
T4 construct: purchased EMD Millipore 219373
T4 sequence (P08311 21-244): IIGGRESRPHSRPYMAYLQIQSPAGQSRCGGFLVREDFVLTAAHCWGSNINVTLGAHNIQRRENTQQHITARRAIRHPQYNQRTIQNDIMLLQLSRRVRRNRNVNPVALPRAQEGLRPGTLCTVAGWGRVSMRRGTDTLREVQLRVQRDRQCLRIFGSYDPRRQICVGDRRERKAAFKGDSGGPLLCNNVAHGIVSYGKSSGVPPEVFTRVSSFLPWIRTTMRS
Procedure: as §3, §4

HtrA2 = molecular target: T5, HtrA2 (Homo sapiens, UniProt O43464); assay: Serine protease inhibition: HtrA2; assay type: biochemical, mammalian; conditions: Table 8B; read-out: IC50 HtrA2
T5 sequence (O43464 134-458): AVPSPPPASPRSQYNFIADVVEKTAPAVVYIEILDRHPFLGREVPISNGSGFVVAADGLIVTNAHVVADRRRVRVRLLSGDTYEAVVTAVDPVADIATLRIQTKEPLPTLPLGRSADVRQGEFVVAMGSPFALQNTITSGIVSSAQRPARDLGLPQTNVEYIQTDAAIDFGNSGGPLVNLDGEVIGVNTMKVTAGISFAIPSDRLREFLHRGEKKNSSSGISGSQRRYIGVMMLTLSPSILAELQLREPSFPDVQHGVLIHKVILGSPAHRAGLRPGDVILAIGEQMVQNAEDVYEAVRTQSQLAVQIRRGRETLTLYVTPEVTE
Procedure: as §3, §4

[1] = molecular target: T6, Dipeptidyl peptidase 8 (DPP8) (Homo sapiens, UniProt Q6V1X1); assay: Serine protease inhibition: DPP8; assay type: biochemical, mammalian; conditions: Table 8B; read-out: IC50 DPP8
T6 construct: purchased BPS Bioscience 80080
Procedure: as §3, §4

KP1009 (CTX-M-15) = assay: Potentiation of aztreonam, strain KP1009; assay type: cell-based
EC1010 (CMY-6) = assay: Potentiation of aztreonam, strain EC1010; assay type: cell-based
ec302 (TEM-10) = assay: Potentiation of tigemonam, strain ec302; assay type: cell-based
P99 = P99 (Enterobacter cloacae, UniProt P05364); assay: Inhibition of nitrocefin cleavage by purified P99; assay type: biochemical; conditions: nitrocefin reporter substrate, purified enzyme; read-out: Ki (P99, NCF)
Procedure: as §2

Chain of KPC-2 (Q9F663 25-293, looked up, species assumed): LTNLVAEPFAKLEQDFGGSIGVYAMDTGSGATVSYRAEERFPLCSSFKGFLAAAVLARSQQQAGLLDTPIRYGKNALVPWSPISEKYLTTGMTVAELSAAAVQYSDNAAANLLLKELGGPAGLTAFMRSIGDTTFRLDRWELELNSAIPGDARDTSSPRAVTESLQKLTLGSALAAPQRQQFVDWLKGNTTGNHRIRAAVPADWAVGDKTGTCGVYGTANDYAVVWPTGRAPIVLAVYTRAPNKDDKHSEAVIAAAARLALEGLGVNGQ
T6 sequence (Q6V1X1 whole entry): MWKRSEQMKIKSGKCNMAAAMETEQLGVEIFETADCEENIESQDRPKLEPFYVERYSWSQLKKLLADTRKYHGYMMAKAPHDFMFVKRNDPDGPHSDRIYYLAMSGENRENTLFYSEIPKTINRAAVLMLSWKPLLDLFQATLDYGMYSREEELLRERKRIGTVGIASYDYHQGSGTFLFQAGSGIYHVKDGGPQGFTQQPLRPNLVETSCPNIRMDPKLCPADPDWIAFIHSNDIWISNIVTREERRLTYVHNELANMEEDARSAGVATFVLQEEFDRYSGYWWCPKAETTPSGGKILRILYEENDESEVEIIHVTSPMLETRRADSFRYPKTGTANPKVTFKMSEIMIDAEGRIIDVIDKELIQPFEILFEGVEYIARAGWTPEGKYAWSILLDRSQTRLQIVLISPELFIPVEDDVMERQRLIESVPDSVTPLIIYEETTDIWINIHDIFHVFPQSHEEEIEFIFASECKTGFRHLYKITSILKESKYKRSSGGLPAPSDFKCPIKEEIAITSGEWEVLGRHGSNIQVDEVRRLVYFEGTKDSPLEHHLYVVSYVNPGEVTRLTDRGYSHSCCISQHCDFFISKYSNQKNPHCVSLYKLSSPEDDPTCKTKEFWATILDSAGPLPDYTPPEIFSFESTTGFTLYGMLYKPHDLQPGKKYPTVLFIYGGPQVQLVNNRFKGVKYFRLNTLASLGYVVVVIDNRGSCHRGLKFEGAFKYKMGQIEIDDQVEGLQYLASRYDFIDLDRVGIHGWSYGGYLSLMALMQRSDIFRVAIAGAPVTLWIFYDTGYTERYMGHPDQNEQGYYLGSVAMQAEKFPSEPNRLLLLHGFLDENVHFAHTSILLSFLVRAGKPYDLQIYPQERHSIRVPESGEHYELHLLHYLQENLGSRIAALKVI
T2 sequence (P00772 27-266): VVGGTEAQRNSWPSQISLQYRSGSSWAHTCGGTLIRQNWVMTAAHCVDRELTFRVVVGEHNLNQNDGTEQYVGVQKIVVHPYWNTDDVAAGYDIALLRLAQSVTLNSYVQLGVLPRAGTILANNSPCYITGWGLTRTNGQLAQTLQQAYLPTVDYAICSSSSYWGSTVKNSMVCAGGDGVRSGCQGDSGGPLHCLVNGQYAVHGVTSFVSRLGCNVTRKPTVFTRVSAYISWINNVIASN
Chain of CTX-M-14 (Q9L5C7 entry or part of it): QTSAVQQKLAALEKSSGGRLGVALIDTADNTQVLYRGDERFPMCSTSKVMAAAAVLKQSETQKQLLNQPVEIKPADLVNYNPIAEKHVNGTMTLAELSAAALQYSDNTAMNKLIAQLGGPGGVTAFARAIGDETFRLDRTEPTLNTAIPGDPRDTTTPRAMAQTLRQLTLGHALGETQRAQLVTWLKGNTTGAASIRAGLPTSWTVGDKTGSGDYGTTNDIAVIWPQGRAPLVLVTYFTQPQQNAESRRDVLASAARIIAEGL
Chain of OXA-48 (Q6XEC0 23-265 limits assumed): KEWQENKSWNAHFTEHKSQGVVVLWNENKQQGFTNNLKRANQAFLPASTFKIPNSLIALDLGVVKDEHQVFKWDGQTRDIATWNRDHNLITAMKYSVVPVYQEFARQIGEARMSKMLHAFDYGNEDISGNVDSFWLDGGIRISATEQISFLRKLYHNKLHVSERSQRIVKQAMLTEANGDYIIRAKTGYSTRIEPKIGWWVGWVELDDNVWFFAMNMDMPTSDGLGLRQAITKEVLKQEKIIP
Chain of CMY-2 (Q48434 21-381, species assumed): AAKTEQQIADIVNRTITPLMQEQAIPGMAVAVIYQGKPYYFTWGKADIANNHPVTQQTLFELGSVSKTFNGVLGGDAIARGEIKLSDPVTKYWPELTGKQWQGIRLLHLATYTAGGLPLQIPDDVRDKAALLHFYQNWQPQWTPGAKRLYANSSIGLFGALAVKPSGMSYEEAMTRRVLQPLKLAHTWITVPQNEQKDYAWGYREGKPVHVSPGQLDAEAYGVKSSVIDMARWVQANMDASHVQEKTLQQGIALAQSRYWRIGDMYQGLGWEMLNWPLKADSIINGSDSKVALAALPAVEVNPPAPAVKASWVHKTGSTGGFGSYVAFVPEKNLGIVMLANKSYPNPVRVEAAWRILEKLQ
Chain of P99 (P05364 21-381): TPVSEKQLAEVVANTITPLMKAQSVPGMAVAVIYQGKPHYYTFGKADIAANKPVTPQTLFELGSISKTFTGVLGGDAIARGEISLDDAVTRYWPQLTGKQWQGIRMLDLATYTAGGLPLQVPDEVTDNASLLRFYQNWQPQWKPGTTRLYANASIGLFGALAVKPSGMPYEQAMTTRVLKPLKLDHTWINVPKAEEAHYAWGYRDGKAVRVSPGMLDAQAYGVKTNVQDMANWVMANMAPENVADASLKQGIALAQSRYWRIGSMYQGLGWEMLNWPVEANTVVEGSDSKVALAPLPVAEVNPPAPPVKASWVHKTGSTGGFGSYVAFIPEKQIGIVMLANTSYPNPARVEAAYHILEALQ

O=C(Cc1cccs1)N[C@H]1Cc2cccc(C(=O)O)c2OB1O [CPD A, reference compound]
Ki (CTX-M-14): < 0.001 µM | Ki (KPC-2): > 0.01 µM | Ki (CMY-2): < 0.001 µM | Ki (OXA-48): < 0.001 µM | IC50 (Thrombin): < 300 µM | IC50 (Elastase): > 800 µM | IC50 (Neutrophil elastase): 15 to 500 µM | IC50 (CathepsinG): < 15 µM | IC50 (HtrA2): > 500 µM | IC50 [1]: 15 to 500 µM

Nc1nnc(SCC(=O)N[C@H]2Cc3cccc(C(=O)O)c3OB2O)s1 [Compound 5, (R)-3-(2-(5-amino-1,3,4-thiadiazol-2-ylthio)acetamido)-2-hydroxy-3,4-dihydro-2H-benzo[e][1,2]oxaborinine-8-carboxylic acid]
AZT MPC4 CTX-M-15 KP1009 (KP1009 (CTX-M-15)): X (key: X = MIC of less than 1 μg/mL; Y = MIC of 1 μg/mL to 10 μg/mL; Z = MIC of greater than 10 μg/mL) | AZT MPC4 CMY-6 EC1010 (EC1010 (CMY-6)): X (key: X = MIC of less than 1 μg/mL; Y = MIC of 1 μg/mL to 10 μg/mL; Z = MIC of greater than 10 μg/mL) | TIG MPC4 TEM-10 ec302 (ec302 (TEM-10)): Y (key: X = MIC of less than 1 μg/mL; Y = MIC of 1 μg/mL to 10 μg/mL; Z = MIC of greater than 10 μg/mL) | Ki (CTX-M-14): 0.001 to 0.01 µM | Ki (KPC-2): > 0.01 µM | IC50 (Thrombin): > 800 µM | IC50 (Elastase): > 800 µM | IC50 (Neutrophil elastase): > 500 µM | IC50 (CathepsinG): < 15 µM | IC50 (HtrA2): > 500 µM | IC50 [1]: 15 to 500 µM

O=CN[C@H]1Cc2cccc(C(=O)O)c2OB1O [Compound 4, (R)-3-formamido-2-hydroxy-3,4-dihydro-2H-benzo[e][1,2]oxaborinine-8-carboxylic acid]
AZT MPC4 CMY-6 EC1010 (EC1010 (CMY-6)): X (key: X = MIC of less than 1 μg/mL; Y = MIC of 1 μg/mL to 10 μg/mL; Z = MIC of greater than 10 μg/mL) | Ki (CTX-M-14): 0.001 to 0.01 µM | Ki (P99): 0.001 to 0.01 µM | Ki (CMY-2): 0.001 to 0.01 µM | Ki (OXA-48): 0.001 to 0.01 µM | IC50 (Thrombin): > 800 µM | IC50 (Elastase): > 800 µM | IC50 (Neutrophil elastase): > 500 µM | IC50 (CathepsinG): 15 to 500 µM | IC50 (HtrA2): > 500 µM | IC50 [1]: > 500 µM

O=C(CSC(F)F)N[C@H]1Cc2cccc(C(=O)O)c2OB1O [Compound 3, (R)-3-(2-(difluoromethylthio)acetamido)-2-hydroxy-3,4-dihydro-2H-benzo[e][1,2]oxaborinine-8-carboxylic acid]
AZT MPC4 CTX-M-15 KP1009 (KP1009 (CTX-M-15)): Y (key: X = MIC of less than 1 μg/mL; Y = MIC of 1 μg/mL to 10 μg/mL; Z = MIC of greater than 10 μg/mL) | Ki (KPC-2): > 0.01 µM | Ki (P99): < 0.001 µM | Ki (OXA-48): < 0.001 µM | IC50 (Thrombin): > 800 µM | IC50 (Elastase): > 800 µM | IC50 (Neutrophil elastase): 15 to 500 µM | IC50 (CathepsinG): < 15 µM | IC50 (HtrA2): > 500 µM | IC50 [1]: > 500 µM
